Results reported in patent US20160243237A1, “EMULSIONS OF PERFLUOROCARBONS” (TENAX THERAPEUTICS, INC., priority 2009, published 2016).
“Also recorded” adds a separate entry of the source.

Key:
[1] = Mechanical stability of the emulsion with tonicity adjusters; format: physicochemical; settings: tonicity adjuster compared with sodium chloride
Description: Glycerin USP is used in the formulation to adjust the tonicity of the emulsion. For intravenous infusion, it is important that the tonicity of the emulsion be in the same physiological range as blood tonicity. Glycerin was chosen because it has a long history of use in parenteral emulsions and because it is not an ionizable species that could contribute to coalescence of the emulsion particles by disruption of the charged layer (zeta potential) surrounding the particles.

[2] = tested on: monkeys; experiment: Single-dose GLP toxicity study, pulmonary hyperinflation; format: in vivo; settings: 60% and 20% w/v, compared with PFOB
Description: (§1) Perfluoro(tert-butylcyclohexane) at both 60% and 20% w/v concentrations has been tested in controlled, single-dose Good Laboratory Practice (GLP) toxicity studies in rats and monkeys. […] Nevertheless, perfluoro(tert-butylcyclohexane) represents a better balance between persistence and the tendency to produce hyperinflated, non-collapsible lungs than what is seen with PFOB and perfluorodecalin.

[3] = Gas carrying capacity (oxygen, CO2); format: physicochemical; settings: at body temperature
Protocol: Perfluoro(tert-butylcyclohexane) can carry about 43 mL of oxygen per 100 mL of PFC, and 196 mL of CO2 per 100 mL of PFC at body temperature.
FtBu can dissolve and release large amounts of gases, including the blood gases oxygen and carbon dioxide. […] As such, no sinusoidal release curve of oxygen is encountered. The transport and release of oxygen and other gases by FtBu is a simple passive process, the quantity of gas dissolved is linearly related to its partial pressure, essentially following Henry's Law.
In the body the PFC emulsion is capable of uploading and unloading oxygen and CO2 more efficiently than blood, (at a FtBu concentration of 60% w/v, Oxycyte® can dissolve 3-4 times the amount of oxygen than human hemoglobin can off-load under normal physiological conditions) and this process is concentration-gradient mediated (Henry's Law). Because the median size of the PFC droplets is approximately 40-50 times smaller than an erythrocyte, Oxycyte® is able to oxygenate tissues with narrowed capillaries, as occurs in brain contusions. After about 10 hours, half of an intravenous dose of 3 mL/kg remains in the circulation. PFCs are eliminated from the blood when macrophages scavenge the lipid particles. This is quite similar to how Intralipid® is transported from the blood stream. PFCs are deposited in the liver and spleen. […]

[4] = Physical properties of perfluoro(tert-butylcyclohexane); format: physicochemical
Description: Physical properties of perfluoro(tert-butylcyclohexane) are as follows: […]

[5] = tested on: skin tissue; experiment: Measuring oxygen tension in tissue with fluorescent marker (Example 3); format: in vivo; settings: skin area treated with PFC
Protocol: A material which binds oxygen (fluorescent marker) is injected into skin tissue. The combination is fluorescent and the more oxygen that is present, the stronger the fluorescent signal. (representing the oxygen tension in the tissue). First it is determined that fluorescence chemistry is unaffected by the PFCs and poloxamers. Then as a control, the fluorescent marker is injected into the skin, and oxygen tension is obtained. Finally, the same area is treated with a PFC, PFC emulsion or a PFC gel and oxygen tension is again obtained.

[6] = tested on: rats and monkeys; experiment: Single-dose GLP toxicity studies, absorption and persistence; format: in vivo
Description: as §1

[7] = Solubility of FtBu in water and solvents; format: physicochemical; settings: room temperature
Description: FtBu is most soluble in halogenated solvents such as isoflurane. Therefore, FtBu needs to be formulated as an aqueous emulsion for intravenous administration.

| SMILES | mechanical stability of the emulsion [1] | degree of pulmonary hyperinflation [2] | CO2 carried [3] | oxygen carried [3] | Density [4] [g/mL] | Kinematic Viscosity [4] [cP] | Vapor Pressure @ 25° C. ([4]; 25° C.) [mmHg] | Vapor Pressure @ 37° C. ([4]; 37° C.) [mmHg] | local oxygen tension in the tissue [5] | persistence in liver and spleen (RES half-life) ([6]; compared with PFOB) | absorption in the body ([6]; single dose) | solubility in 2,2,4-trimethylpentane(isooctane) [7] | solubility in halogenated solvents such as isoflurane [7] | solubility in water [7] |
| --- | --- | --- | --- | --- | --- | --- | --- | --- | --- | --- | --- | --- | --- | --- |
| OCC(O)CO [glycerin, Glycerin] | superior to sodium chloride |  |  |  |  |  |  |  |  |  |  |  |  |  |
| OC[C@@H](O)[C@@H](O)[C@H](O)[C@H](O)CO [mannitol] | superior to sodium chloride |  |  |  |  |  |  |  |  |  |  |  |  |  |
| FC(F)(F)C(C(F)(F)F)(C(F)(F)F)C1(F)C(F)(F)C(F)(F)C(F)(F)C(F)(F)C1(F)F [perfluoro(tert-butylcyclohexane), 1-(1,1-bis(trifluoromethyl)-2,2,2-trifluoroethyl)-1,2,2,3,3,4,4,5,5,6,6-undecafluorocyclohexane] |  | significantly less than that seen in monkeys treated with PFOB; also recorded: correspondingly lesser propensity to cause pulmonary hyperinflation | ~196 mL of CO2 per 100 mL of PFC | about 43 mL of oxygen per 100 mL of PFC | 1.97 | 5.378 | 3.8 | 4.4 | substantially increases local oxygen tension | somewhat longer than what has been reported for PFOB; also recorded: somewhat longer than that of the benchmark perfluorocarbon, PFOB | generally comparable to what has been reported for other PFCs | only minimal solubility | most soluble | virtually insoluble in water |
